Patent US11142505B2, “Compositions for APP-selective BACE inhibition and uses therefor” (The Regents of the University of California, priority 2015, dated 2021)
pIC50: −log10 of the molar value. Where “and” joins values, the source holds several entries; their conditions need not be identical. Equal values may be shown once. Where a name gives a salt, the structure may show the parent alone. Read-outs that look alike come from different tables or passages of the source.

Columns and labels:
[1] = test system: CHO-7W cells that were stably transfected with human APP (wildtype); test: Secondary cell-based test of APP processing (sAPPalpha, sAPPbeta, Abeta 1-42); conditions: for Aβ1-42 peptide formation, in words: FIG. 1C, FIG. 5B; for sAPP (α/β) / sAPPalpha / sAPPbeta / sAPPα/Aβ / Abeta 1-42: Secondary (1st test, n = 3); for sAPP (α/β) / sAPPα/Aβ: ratio; for sAPPbeta / Abeta 1-42: ↓ decrease
Text: Cellular Assays: Numerous cell-based assays can be used to evaluate the activity of agent(s) of interest on relative alpha-secretase activity to beta-secretase activity and/or processing of APP to release amyloidogenic versus non-amyloidogenic oligomers.
Relative activity of the alpha-secretase to the beta-secretase can be measured by analysis of one or more cleavage products of the APP substrate. For example, inhibition of beta-secretase activity against the substrate APP would be expected to decrease release of specific beta-secretase induced APP cleavage products such as Aβ (e.g., Aβ40 or Aβ42), sAPPβ and APPneo. Promotion or enhancement of alpha-secretase activity against the substrate APP would be expected to increase release of specific alpha-secretase induced APP cleavage products such as sAPPα and p3 peptide.
In such assays, for example, the cells expressing APP, alpha-secretase and/or beta-secretase are incubated in a culture medium under conditions suitable for alpha-secretase and/or beta-secretase enzymatic activity at its cleavage site on the APP substrate. On exposure of the cells to the agent(s), the amount of Aβ released into the medium and/or the amount of CTF99 fragments of APP in the cell lysates is reduced as compared with the control. The cleavage products of APP can be analyzed, for example, by immune reactions with specific antibodies, as discussed above.

[2] = pharmacokinetics, plasma and brain levels; type: in vivo
Text: As is readily apparent, not all compounds were equally able to cross the blood brain barrier, but most compounds did reach pharmacologically meaningful levels given their low IC50 values. FIG. 5A provides a further exemplary compound (FAH65) and FIG. 5B depicts dose response data for Aβ1-42 production in a cell based system.. Further shown are effects observed with regard to Aβ1-42 production, sAPPβ and sAPPα formation. […] Here, data are presented for oral and subcutaneous administration (SQ) at dosages of 10- and 30 mg/kg. […] Once more, it should be noted that these exemplary compounds are preferential towards APP in BACE inhibition as can be taken from the data for Aβ1-42, sAPPβ, and sAPPα formation.

solubility (Sol) = type: physicochemical; conditions: Table 3
BACE1 = BACE1 (Homo sapiens (Human), UniProt P56817); test: in vitro BACE inhibition assay (Primary BACE1 IC50); type: biochemical; conditions: for BACE activity / IC50 in the BACE assay, in words: FIG. 1B, FIG. 2B
Text: ABBI Assay: APP Binding BACE Inhibitor (ABBI) activity of any of the compounds described herein can readily be verified using, for example, assays described herein. […] In one illustrative embodiment, an MBP-C125 APP695 wt fusion protein can be used as one of the substrates and the second substrate can be the commercially available P5-P5′ fluorescence substrate.

[3] = Table 4, several values in a cell are repeat determinations, read-out: BACE1 IC50
[4] = one cell spans the readout columns

Chain of BACE1 (P56817 46-501): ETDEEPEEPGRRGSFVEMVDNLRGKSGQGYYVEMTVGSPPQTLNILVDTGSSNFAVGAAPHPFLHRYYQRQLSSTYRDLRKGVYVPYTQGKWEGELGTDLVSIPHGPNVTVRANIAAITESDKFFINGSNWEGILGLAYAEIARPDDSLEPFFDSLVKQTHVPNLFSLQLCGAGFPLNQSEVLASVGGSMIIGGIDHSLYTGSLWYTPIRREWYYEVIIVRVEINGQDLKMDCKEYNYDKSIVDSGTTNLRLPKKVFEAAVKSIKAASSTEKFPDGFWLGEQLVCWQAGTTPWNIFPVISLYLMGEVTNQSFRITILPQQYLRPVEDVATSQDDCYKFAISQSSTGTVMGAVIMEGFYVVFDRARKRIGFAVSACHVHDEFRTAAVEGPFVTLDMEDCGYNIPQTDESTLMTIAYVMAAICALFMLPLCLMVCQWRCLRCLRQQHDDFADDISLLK

Row | SMILES | sAPP (α/β) ([1]; ↑ increase) | sAPPalpha ([1]; ↑ increase) | sAPPbeta [1] | sAPPα/Aβ ([1]; ↑ increase) | Abeta 1-42 [1] | also measured
1 | Cc1cc(C2(c3cccc(-c4cncnc4)c3)N=C(N)N(C)C2=O)ccc1OC(F)F (racemic) [FAH-65] | – | – | – | – | – | Aβ1-42 peptide formation, in words [1]: strongly reduces Aβ1-42 production; preference towards APP in BACE inhibition, in words ([1]; from Aβ1-42, sAPPβ and sAPPα formation): clear preference towards APP in BACE inhibition; brain levels / crossing the blood brain barrier, in words ([2]; FIG. 4, FIG. 5C (oral and SQ, 10 and 30 mg/kg)): pharmaceutically meaningful concentrations can be achieved in the brain
2 | Cc1cc(C2(c3cnn(C)c3)N=C(N)N(C)C2=O)ccc1OC(F)F (stereo not drawn) [30 HCl] | ↑≈40% | ↑>10% | ↓>20% | – | – | –
3 | Cc1cc(C2(c3cc(F)cc(F)c3)N=C(N)N(C)C2=O)ccc1OC(F)F (stereo not drawn) [FAH-03] | ↑≈50% | ↑>10% | ↓>20% | ↑>50% | ↓>20% | –
4 | Cc1cc(C2(c3cccc(F)c3)N=C(N)N(C)C2=O)ccc1OC(F)F (stereo not drawn) [FAH-17] | ↑>100% | ↑>20% | ↓>30% | ↑>100% | ↓>30% | Sol (solubility (Sol)): Med; Cmax brain [2]: ~0.3 µM
5 | Cc1cc(F)cc(C2(c3ccc(OC(F)F)c(C)c3)N=C(N)N(C)C2=O)c1 (stereo not drawn) [FAH-22] | ↑≈50% | ↑>10% | ↓>20% | ↑>100% | ↓>25% | pIC50 (BACE1; [3]): 6.15
6 | Cc1cc(C2(c3cccc(Cl)c3)N=C(N)N(C)C2=O)ccc1OC(F)F (stereo not drawn) [FAH-23] | ↑>50% | ↑>20% | ↓>20% | ↑>100% | ↓>25% | –
7 | Cc1cc(C2(c3cc(F)cc(Cl)c3)N=C(N)N(C)C2=O)ccc1OC(F)F (stereo not drawn) [FAH-25] | ↑≈50% | ↑>10% | ↓>20% | ↑>40% | ↓>20% | –
8 | Cc1cccc(C2(c3ccc(OC(F)F)c(C)c3)N=C(N)N(C)C2=O)c1 (stereo not drawn) [FAH-27] | ↑>100% | ↑>30% | ↓>30% | ↑>100% | ↓>40% | –
9 | Cc1cc(C2(c3cccc(C(F)(F)F)c3)N=C(N)N(C)C2=O)ccc1OC(F)F (stereo not drawn) [FAH-28] | ↑>50% | ↑>20% | ↓>20% | ↑>40% | ↓>20% | –
10 | Cc1cc(C2(c3cccc(-c4cccnc4)c3)N=C(N)N(C)C2=O)ccc1OC(F)F (stereo not drawn) [FAH-32] | ↑>100% | ↑>20% | ↓>30% | ↑>100% | ↓>60% | BACE activity / IC50 in the BACE assay, in words (BACE1): significantly reduced IC50; Aβ1-42 peptide formation, in words [1]: substantially reduced; sAPPα formation, in words ([1]; FIG. 1D, compared to FAH17): increased sAPPα formation as compared to FAH17; sAPPβ formation, in words ([1]; FIG. 1D, compared to FAH17): reduced as compared to FAH17; Sol (solubility (Sol)): Med; Cmax brain [2]: <0.02 µM
11 | Cc1cc(C2(c3cncnc3)N=C(N)N(C)C2=O)ccc1OC(F)F (stereo not drawn) [FAH-33] | ↑≈10% | ↑>10% | Unchanged | ↑>20% | ↓≈10% | –
12 | Cc1cc(C2(c3cncc(F)c3)N=C(N)N(C)C2=O)ccc1OC(F)F (stereo not drawn) [FAH-37] | ↑>50% | ↑>10% | ↓>20% | – | ↓≈20% | BACE activity / IC50 in the BACE assay, in words (BACE1): less effective in reducing BACE activity in vitro; pIC50 (BACE1; [3]): 5.71 and 5.55 and 5.33; pIC50 (BACE1; Tables 1 and 2, read-out: Primary BACE1 IC50): 6.82; sAPPα/Aβ ([1]; ↓ (decrease)): ↓>40%; Sol (solubility (Sol)): Good; Cmax brain [2]: ~0.11 uM μM
13 | Cc1cc(C2(c3cocn3)N=C(N)N(C)C2=O)ccc1OC(F)F (stereo not drawn) [FAH-38] | – | – | – | – | – | Secondary (1st test) result across all readouts [1, 4]: unchanged
14 | Cc1cc(C2(c3cccc(F)c3)N=C(N)N(Cc3ccccc3)C2=O)ccc1OC(F)F (stereo not drawn) [FAH-42] | ↑>50% | ↑>10% | ↓>30% | unchanged | ↓≈10% | –
15 | COCc1cccc(C2(c3ccc(OC(F)F)c(C)c3)N=C(N)N(C)C2=O)c1 (stereo not drawn) [FAH-44] | ↑>100% | ↑>10% | ↓>30% | – | ↓>30% | pIC50 (BACE1; Table 3, read-out: IC50): ~6.60; sAPPα/Aβ ([1]; ↓ (decrease)): ↓>100%; Sol (solubility (Sol)): Excellent; Cmax brain [2]: ~0.2 µM
16 | Cc1cc(C2(c3ccnc(F)c3)N=C(N)N(C)C2=O)ccc1OC(F)F (stereo not drawn) [FAH-46] | ↑≈10% | ↑>10% | ↓<10% | – | ↓>20% | sAPPα/Aβ ([1]; ↓ (decrease)): ↓>40%; Sol (solubility (Sol)): Good; Cmax brain [2]: ~0.3 µM
17 | Cc1cc(C2(c3ccc(OC(F)F)c(C)c3)N=C(N)N(C)C2=O)ccn1 (stereo not drawn) [FAH-47] | ↑>50% | ↑>10% | ↓>20% | – | ↓≈10% | sAPPα/Aβ ([1]; ↓ (decrease)): ↓>20%
18 | COc1cc(C2(c3ccc(OC(F)F)c(C)c3)N=C(N)N(C)C2=O)ccn1 (stereo not drawn) [FAH-48] | ↑≈50% | ↑>10% | ↓>20% | – | ↓≈10% | sAPPα/Aβ ([1]; ↓ (decrease)): ↓>20%
19 | COCc1cc(C2(c3ccc(OC(F)F)c(C)c3)N=C(N)N(C)C2=O)ccn1 (stereo not drawn) [FAH-53] | ↑≈50% | ↑>10% | ↓<10% | – | ↓<10% | sAPPα/Aβ ([1]; ↓ (decrease)): ↓≈20%
20 | Cc1cc(C2(C3CCCCC3)N=C(N)N(C)C2=O)ccc1OC(F)F (stereo not drawn) [FAH-59] | – | – | – | – | – | Secondary (1st test) toxicity [1, 4]: Toxic
21 | CNCc1cccc(C2(c3ccc(OC(F)F)c(C)c3)N=C(N)N(C)C2=O)c1 (stereo not drawn) [FAH-62] | ↑≈50% | ↑>10% | ↓>20% | – | ↓<10% | sAPPα/Aβ ([1]; ↓ (decrease)): ↓≈30%; Sol (solubility (Sol)): Good
22 | Cc1cc(C2(c3cccc(C4CNC4)c3)N=C(N)N(C)C2=O)ccc1OC(F)CF (stereo not drawn) [FAH-64] | – | – | – | – | – | pIC50 (BACE1; [3]): 5.49
23 | Cc1cc(C2(c3cccc(-c4cncc(F)c4)c3)N=C(N)N(C)C2=O)ccc1OC(F)F (stereo not drawn) [FAH-66] | – | – | – | – | – | pIC50 (BACE1; [3]): 6.92
24 | Cc1cc(C2(C3CCN(C)CC3)N=C(N)N(C)C2=O)ccc1OC(F)CF (stereo not drawn) [FAH-67] | – | – | – | – | – | pIC50 (BACE1; [3]): 4.62
25 | CCCC1CC(C2(C3=CC(C)=C(OC(F)F)C(C)C3)N=C(N)N(C)C2=O)CCN1C (stereo not drawn) [FAH-68] | – | – | – | – | – | pIC50 (BACE1; [3]): 4.79
